B1: 2638A 180-486: engineered amidase-SH3b construct initiated at codon 180, SEQ ID NO:6 (protein)
chain: MKHIYSNHIKGNKITAPKPSIQGVVIHNDYGSMTPSQYLPWLYARENNGTHVNGWASVYANRNEVLWYHPTDYVEWHCGNQWANANLIGFEVCESYPGRISDKLFLENEEATLKVAADVMKSYGLPVNRNTVRLHNEFFGTSCPHRSWDLHVGKGEPYTTTNINKMKDYFIKRIKHYYDGGKLEVSKAATIKQSDVKQEVKKQEAKQIVKATDWKQNKDGIWYKAEHASFTVTAPEGIITRYKGPWTGHPQAGVLQKGQTIKYDEVQKFDGHVWVSWETFEGETVYMPVRTWDAKTGKVGKLWGEIKLEHHHHHH
modifications: Phage 2638a
B2: 2638A 1-180Mut-486: repaired full length construct, codon 180 TTG silently mutated to CTC, SEQ ID NO:4 (protein)
chain: MLTAIDYLTKKGWKISSDPRTYDGYPKNYGYRNYHENGINYDEFCGGYHRAFDVYSNETNDVPAVTSGTVIEANDYGNFGGTFVIRDANDNDWIYGHLQRGSMRFVVGDKVNQGDIIGLQGNSNYYDNPMSVHLHLQLRPKDAKKDEKSQVCSGLAMEKYDITNLNAKQDKSKNGSVKELKHIYSNHIKGNKITAPKPSIQGVVIHNDYGSMTPSQYLPWLYARENNGTHVNGWASVYANRNEVLWYHPTDYVEWHCGNQWANANLIGFEVCESYPGRISDKLFLENEEATLKVAADVMKSYGLPVNRNTVRLHNEFFGTSCPHRSWDLHVGKGEPYTTTNINKMKDYFIKRIKHYYDGGKLEVSKAATIKQSDVKQEVKKQEAKQIVKATDWKQNKDGIWYKAEHASFTVTAPEGIITRYKGPWTGHPQAGVLQKGQTIKYDEVQKFDGHVWVSWETFEGETVYMPVRTWDAKTGKVGKLWGEIKLEHHHHHH
modifications: Mutated Phage 2638a
B3: 2638A 139-486: truncated endolysin with full length amidase and SH3b domains, SEQ ID NO:5 (protein)
chain: MRPKDAKKDEKSQVCSGLAMEKYDITNLNAKQDKSKNGSVKELKHIYSNHIKGNKITAPKPSIQGVVIHNDYGSMTPSQYLPWLYARENNGTHVNGWASVYANRNEVLWYHPTDYVEWHCGNQWANANLIGFEVCESYPGRISDKLFLENEEATLKVAADVMKSYGLPVNRNTVRLHNEFFGTSCPHRSWDLHVGKGEPYTTTNINKMKDYFIKRIKHYYDGGKLEVSKAATIKQSDVKQEVKKQEAKQIVKATDWKQNKDGIWYKAEHASFTVTAPEGIITRYKGPWTGHPQAGVLQKGQTIKYDEVQKFDGHVWVSWETFEGETVYMPVRTWDAKTGKVGKLWGEIKLEHHHHHH
modifications: Phage 2638a

Columns and labels:
MRSA strain NRS382 = test: Control of systemic MRSA infection in a murine model; type: in vivo, Staphylococcus aureus; details: for Mean NRS382 Titer in the Blood: Recovered 48 hr post infection from surviving mice, same doses
[1] = system: S. aureus strain NRS119 (SA LinR #12; linezolid resistant); test: Plate lysis assay (FIG. 3); type: cell-based; details: lawn on TSA plates, observed over days
Experimental: Purified proteins for each construct were diluted in sterile nickel column elution buffer, and 6 μL of lysostaphin (11 μg) or the constructs (0.2 nmoles or ˜11 μg for the repaired construct 2638A 1-180Mut-486) was spotted onto a freshly spread lawn of S. aureus strain NRS119 (SA LinR #12; linezolid resistant) growing cells that had air dried for 30 min on tryptic soy agar (TSA) plates. L=[…] Lysostaphin (Sigma); Spot 1=11 μg; all other constructs are 0.2 nmoles (˜11 μg for the repaired construct 2638A 1-180Mut-486) […]. The spotted plates were air dried for 10 min in a laminar flow hood and incubated overnight in a 37° C. environment. Scoring of the cleared spots occurred within 20 h of plating the cells.
The Plate Lysis assay results (FIG. 3) agree with the turbidity reduction assay. Each of the M23 peptidase dependent or SH3b-truncating constructs showing weak activity on S. aureus strain Newman strain. In addition to the Plate Lysis results in FIG. 3, we have also examined numerous strains with reduced but real lytic activity (Table 1). However, the plate lysis results with the 2638A endolysin constructs are extremely novel in appearance. Plate lysis results are routinely visualized as a discrete cleared spot on a lawn of bacteria after a single overnight of culture. […]

S. aureus strain Newman [2] = test: Turbidity reduction assay; type: cell-based; details: 0.5 μM protein; live S. aureus Newman; Mn2+, Mg2+, Ca2+ 1 mM; FIG. 3
Experimental: The turbidity assay measures the drop in optical density (OD) resulting from lysis of the target bacteria with the phage endolysin-derived protein. Mid log phase (OD600 nm of 0.4-0.6) target cells were grown in Brain Heart Infusion (Becton Dickenson, Franklin Lakes, N.J.) and concentrated in lysing buffer A (LBA; 50 mM ammonium acetate, 10 mM CaCl2, 1 mM DTT at pH 6.2) to an OD600 nm of ˜2.0. The turbidity reduction assays were performed with identical molar amounts of proteins and S. aureus strain Newman with the addition of the bivalent metal cations Mn^2+, Mg^2+, and Ca^2+ at a concentration of 1 mM. The turbidity reduction assay contained 0.5 μM protein (5.7 μg of full length repaired construct: 2638A 1-180Mut-486 in 200 μl assay) unless otherwise noted. Lane 1, 2638A 1-486 (5.7 μg total protein in 200 μl assay); Lane 2, 2638A 1-196; Lane 3, 2638A 1-220; Lane 4, 2638A 1-244; Lane 5, 2638A 1-220::355-486; Lane 6, 2638A 1-411; Lane 7, 2638A 139-411; Lane 8, 2638A 139-486; Lane 9, 2638A 180-486; Lane 10, 2638A 1-180Mut-486. Mixing reactions between the repaired full length construct 2638A 1-180Mut-486 (R) and the engineered amidase-SH3b construct 2638A 180-486 (A) were performed in the following ratios Lane 11, R:A::1:1, 1 μM; Lane 12, R:A::1:1, 0.5 μM; Lane 13, R:A::1:3, 0.5 μM; and Lane 14, R:A::3:1, 0.5 μM. Optical Density measurements are taken at regular intervals. If the lysin can digest the cell wall, lysis will occur with a subsequent reduction in OD. Changes in the OD600 nm in the control sample (cells alone) were subtracted from samples containing both cells and lysin, before calculating the specific activity. Specific Activity=ΔOD600 nm/μM/min.

S. aureus strain Newman [3] = test: Zymogram analysis; type: cell-based; details: 5 μg loaded; SDS treated S. aureus Newman embedded in gel; FIG. 1C
From the text: Zymograms are not usually interpreted quantitatively (especially since these were loaded with μg equivalents and not molar equivalents of enzyme) but rather are used to indicate that the minor contaminating bands in the preparations are not contributing to the activity of the preparation. There was virtually no activity from any of the minor (non-shadow) bands in the zymogram assay after extended periods. However, the presence of nearly equal amounts of the active shadow band (from stained SDS gel) in many preparations negated the ability to quantify the activity from either the isolated amidase domain (2638A 139-411; 2638A 139-486) or the full length construct.

[4] = 0 hours, Balb/c mice, I.P. 4×10^7 CFU, treated 30 min post infection: 2638A 200 μg/mouse I.P., Vancomycin 375 μg/mouse s.c., Oxacillin 1250 μg/mouse s.c.

| Molecule | % Survival (MRSA strain NRS382; [4]) | % Survival (MRSA strain NRS382; 4 hours, same model and doses) | % Survival (MRSA strain NRS382; 8 hours, same model and doses) | % Survival (MRSA strain NRS382; 12 hours, same model and doses) | % Survival (MRSA strain NRS382; 16 hours, same model and doses) | % Survival (MRSA strain NRS382; 20 hours, same model and doses) | % Survival (MRSA strain NRS382; 24 hours, same model and doses) | % Survival (MRSA strain NRS382; 28 hours, same model and doses) | % Survival (MRSA strain NRS382; 32 hours, same model and doses) | % Survival (MRSA strain NRS382; 36 hours, same model and doses) | % Survival (MRSA strain NRS382; 40 hours, same model and doses) | % Survival (MRSA strain NRS382; 44 hours, same model and doses) | Mean NRS382 Titer in the Blood (MRSA strain NRS382) | activity in the turbidity reduction assay (S. aureus strain Newman [2]) | other results |
| --- | --- | --- | --- | --- | --- | --- | --- | --- | --- | --- | --- | --- | --- | --- | --- |
| Cc1onc(-c2ccccc2)c1C(=O)N[C@@H]1C(=O)N2[C@@H]1SC(C)(C)[C@@H]2C(=O)O [Oxacillin] | 100% | 100% | 100% | 100% | 100% | 40% | 40% | 30% | 30% | 30% | 30% | 30% | 0.9 ± 1.6 × 10^3 CFU/ml | – | survival rate (MRSA strain NRS382; after 16 to 20 hours, same model and doses): less than 40%; average septicemia score (MRSA strain NRS382; at 20 hours post infection, maintained until the end, score 0-5 per Table 4): approximately 4 |
| Lysostaphin: Lysostaphin (Sigma), peptidoglycan hydrolase control in plate lysis [reference compound] | – | – | – | – | – | – | – | – | – | – | – | – | – | – | appearance and persistence of the cleared zone in plate lysis [1]: cleared zone remains that way for days or weeks |
| CN[C@H](CC(C)C)C(=O)N[C@H]1C(=O)N[C@@H](CC(N)=O)C(=O)N[C@H]2C(=O)N[C@H]3C(=O)N[C@H](C(=O)N[C@H](C(=O)O)c4cc(O)cc(O)c4-c4cc3ccc4O)[C@H](O)c3ccc(c(Cl)c3)Oc3cc2cc(c3O[C@@H]2O[C@H](CO)[C@@H](O)[C@H](O)[C@H]2O[C@H]2C[C@](C)(N)[C@H](O)[C@H](C)O2)Oc2ccc(cc2Cl)[C@H]1O [Vancomycin] | 100% | 100% | 100% | 100% | 100% | 100% | 100% | 100% | 100% | 100% | 100% | 100% | 1.8 ± 3.3 × 10^1 CFU/ml | – | % Survival (MRSA strain NRS382; 48 hours (end of the experiment), same model and doses): 100%; septicemia score at the end of the experiment (MRSA strain NRS382; 48 hours, score 0-5 per Table 4): 0 |
| B1 | – | – | – | – | – | – | – | – | – | – | – | – | – | appreciable activity | – |
| B2 | – | – | – | – | – | – | – | – | – | – | – | – | – | appreciable activity | – |
| B3 | – | – | – | – | – | – | – | – | – | – | – | – | – | appreciable activity | staphylolytic activity (zones of clearing) in the zymogram (S. aureus strain Newman [3]): active |
